In article PMC9150102 (Journal of Medicinal Chemistry, 2022):

Key:
SERCA1 = biological target: T1, SERCA1 (Cavia porcellus, UniProt H0UXI0); assay: SERCA1 ATPase activity in PLN-free skeletal muscle microsomes; format: biochemical, guinea pig; details: 30 to 1000 nM
T1 construct: from tissue; host or cells: adult male guinea pig fast-twitch hind leg muscle, SR microsomes
Method: (§1) Data are the mean ± SEM. *p < 0.05 (one-way RM ANOVA plus post hoc Tukey’s multiple comparisons or paired t-test).
(§2) Measurements were performed in cardiac SR microsomes (guinea pig) and in whole tissue homogenates (rat). Cardiac preparations included SERCA2a and PLN. To test for PLN involvement in the effect of compounds, SERCA1 activity was measured in PLN-free microsomes (from guinea pig skeletal muscle) before and after reconstitution with the synthetic PLN1–32 inhibitory fragment at a ratio of 300:1 for PLN/SERCA. […] Either an increase in Vmax (rat) or a decrease in KdCa (increased Ca^2+ affinity) (guinea pig) stands for enhancement of SERCA function.
(§3) (rats). As verified by Western blot, cardiac microsomes preparations included SERCA2a and PLN and skeletal muscle ones included SERCA1 only.
(§4) SERCA stimulation4, compounds were also tested on SERCA1 in microsomes of guinea-pig skeletal muscle (PLN-free) before and after reconstitution with the PLN1-32 inhibitory fragment at a ratio of 300:1 […]
SERCA2a ATPase activity was measured as the rate of 32P-ATP release at multiple Ca2+ concentrations (100-2000 nM) in the absence and presence of tested compounds, as previously described5. […] 32P was separated by centrifugation with activated charcoal (Norit A, Serva) and the radioactivity was measured. […]

[1] = tested on: SERCA1 reconstituted with PLN1–32 fragment; assay: SERCA1 ATPase activity after reconstitution with PLN1-32 fragment; format: biochemical, guinea pig; details: 30 to 1000 nM
Method: as §1, §2, §3, §4
Tissues were homogenized, subjected to centrifugation to obtain SR -enriched microsomes and sarcomeric proteins were extracted, as previously described 4.
(§5) In the case of guinea-pig hearts, LV tissues were homogenized in 4 volumes of 10 mM NaHCO3, 1 mM PMSF, 10 μg/ml aprotinin and leupeptin (pH 7) and centrifuged at 12,000g for 15 minutes. Supernatants were filtered and centrifuged at 100,000 g for 30 min. Contractile proteins were extracted by suspending the pellets with 0.6 M KCl, 30 mM histidine, pH 7 and further centrifugation at 100,000 g for 30 min.
(§6) Final pellets were reconstituted with 0.3 M sucrose, 30 mM histidine, pH 7, to obtain SR-enriched […]
(§7) SERCA2a ATPase activity was measured as the rate of 32P-ATP release at multiple Ca2+ concentrations (100-2000 nM) in the absence and presence of tested compounds, as previously described5. Increasing concentrations of each compound were pre-incubated with 2 μg of cardiac preparations for 5 min at 4° C in 80 μl of a solution containing 100 mM KCl, 5 mM MgCl2, 1 μM A23187, 20 mM Tris, pH 7.5. Then, 20 μl of 5 mM Tris-ATP containing 50 nCi of 32P-ATP (3-10 Ci/mmol, Perkin Elmer) were added. The ATP hydrolysis was continued for 15 min at 37°C and the reaction was stopped by acidification with 100 μl of 20% ice-cold perchloric acid. 32P was separated by centrifugation with activated charcoal (Norit A, Serva) and the radioactivity was measured. SERCA2a-dependent ATPase activity was identified as the portion of total hydrolytic activity inhibited by cyclopiazonic acid (CPA, 10 µM). Technical replicates were used to ensure the reliability of single values.
Reconstitution of SERCA1 with PLN1-32 synthetic fragment
Adult healthy male guinea-pigs were used to prepare SERCA1-enriched SR microsomes from fast-twitch hind leg muscles. Microsomes were prepared as described for SERCA2a preparations. For reconstitution experiments, SERCA1 (PLN-free) was pre-incubated with synthetic PLN1-32 fragment (canine sequence, Biomatik Corporation, Canada) in 20 mM imidazole, pH 7, at 1:300 SERCA1:PLN ratio for 30 min at room temperature. After pre-incubation, SERCA1 (PLN-free) alone, or reconstituted with PLN1-32 […]
fragment, was utilized for SERCA activity measurement by using 32P-ATP hydrolysis method at different

SERCA2a [2] = biological target: T2, SERCA2a (Rattus norvegicus, UniProt P11507); assay: SERCA2a ATPase activity in cardiac homogenates from diabetic (STZ) rats; format: biochemical
T2 construct: tissues from healthy and STZ rats were homogenized; from tissue; host or cells: Sprague Dawley rat left ventricle homogenates (healthy or STZ-diabetic)
T2 sequence (P11507 1-997 isoform P11507-2): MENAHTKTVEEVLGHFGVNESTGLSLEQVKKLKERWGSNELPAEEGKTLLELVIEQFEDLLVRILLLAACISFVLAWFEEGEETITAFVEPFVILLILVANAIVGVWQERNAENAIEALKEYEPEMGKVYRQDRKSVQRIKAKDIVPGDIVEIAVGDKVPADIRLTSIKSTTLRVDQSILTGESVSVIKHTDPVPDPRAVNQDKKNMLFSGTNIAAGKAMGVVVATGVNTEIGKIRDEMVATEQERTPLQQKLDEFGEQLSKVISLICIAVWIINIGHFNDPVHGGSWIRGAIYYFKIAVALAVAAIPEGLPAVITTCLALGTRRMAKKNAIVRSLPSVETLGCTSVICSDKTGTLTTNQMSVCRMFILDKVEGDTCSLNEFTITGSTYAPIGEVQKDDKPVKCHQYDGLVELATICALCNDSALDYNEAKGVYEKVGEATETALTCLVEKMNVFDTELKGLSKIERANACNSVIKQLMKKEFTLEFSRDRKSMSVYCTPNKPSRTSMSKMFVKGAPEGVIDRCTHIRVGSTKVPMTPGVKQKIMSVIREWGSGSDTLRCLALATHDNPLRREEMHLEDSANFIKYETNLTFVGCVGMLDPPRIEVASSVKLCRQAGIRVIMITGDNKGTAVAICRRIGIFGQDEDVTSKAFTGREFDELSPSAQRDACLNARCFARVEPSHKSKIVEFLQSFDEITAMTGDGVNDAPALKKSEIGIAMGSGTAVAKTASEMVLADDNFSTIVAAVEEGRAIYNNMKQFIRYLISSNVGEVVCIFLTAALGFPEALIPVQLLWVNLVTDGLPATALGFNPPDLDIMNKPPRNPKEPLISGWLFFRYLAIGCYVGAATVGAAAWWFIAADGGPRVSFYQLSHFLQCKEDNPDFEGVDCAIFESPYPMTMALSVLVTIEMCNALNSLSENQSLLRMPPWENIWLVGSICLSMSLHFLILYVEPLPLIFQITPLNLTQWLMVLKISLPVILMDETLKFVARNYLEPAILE
Method: as §2, §3, §4
Left ventricles (LV) were dissected from rat and guinea -pig of healthy and failing preparations and frozen until use. Tissues were homogenized, subjected to centrifugation to obtain SR -enriched microsomes and sarcomeric proteins were extracted, as previously described 4.
as §5, §6
(§8) In the case of rat hearts, cardiac homogenates were used to have sufficient material to replicate the experiments within a single animal. Hearts were excised from rats eight weeks after STZ injection. LV tissues from healthy and STZ rats were homogenized (1 g in 4 ml buffer) in a medium containing 300 mM sucrose, 50 mM K-phosphate, 10 mM NaF, 0.3 mM PMSF, 0.5 mM DTT, pH 7, and centrifuged at 35,000 g for 30 min. The final pellet was resuspended in the same buffer.
SERCA2a ATPase activity was measured as the rate of 32P-ATP release at multiple Ca2+ concentrations (100-2000 nM) in the absence and presence of tested compounds, as previously described5. Increasing concentrations of each compound were pre-incubated with 2 μg of cardiac preparations for 5 min at 4° C in 80 μl of a solution containing 100 mM KCl, 5 mM MgCl2, 1 μM A23187, 20 mM Tris, pH 7.5. Then, 20 μl of 5 mM Tris-ATP containing 50 nCi of 32P-ATP (3-10 Ci/mmol, Perkin Elmer) were added. […] 32P was separated by centrifugation with activated charcoal (Norit A, Serva) and the radioactivity was measured. […]

SERCA2a [3] = biological target: T2, SERCA2a; assay: SERCA2a ATPase activity in cardiac SR homogenates from healthy rats; format: biochemical
Method: as §2, with “function. […]” for “function.”
Left ventricles (LV) were dissected from rat and guinea -pig of healthy and failing preparations and frozen until use. Tissues were homogenized, subjected to centrifugation to obtain SR -enriched microsomes and sarcomeric proteins were extracted, as previously described 4. […]
as §8
as §7, with “values. […]” for “values.”

T1 sequence (H0UXI0 1-1001): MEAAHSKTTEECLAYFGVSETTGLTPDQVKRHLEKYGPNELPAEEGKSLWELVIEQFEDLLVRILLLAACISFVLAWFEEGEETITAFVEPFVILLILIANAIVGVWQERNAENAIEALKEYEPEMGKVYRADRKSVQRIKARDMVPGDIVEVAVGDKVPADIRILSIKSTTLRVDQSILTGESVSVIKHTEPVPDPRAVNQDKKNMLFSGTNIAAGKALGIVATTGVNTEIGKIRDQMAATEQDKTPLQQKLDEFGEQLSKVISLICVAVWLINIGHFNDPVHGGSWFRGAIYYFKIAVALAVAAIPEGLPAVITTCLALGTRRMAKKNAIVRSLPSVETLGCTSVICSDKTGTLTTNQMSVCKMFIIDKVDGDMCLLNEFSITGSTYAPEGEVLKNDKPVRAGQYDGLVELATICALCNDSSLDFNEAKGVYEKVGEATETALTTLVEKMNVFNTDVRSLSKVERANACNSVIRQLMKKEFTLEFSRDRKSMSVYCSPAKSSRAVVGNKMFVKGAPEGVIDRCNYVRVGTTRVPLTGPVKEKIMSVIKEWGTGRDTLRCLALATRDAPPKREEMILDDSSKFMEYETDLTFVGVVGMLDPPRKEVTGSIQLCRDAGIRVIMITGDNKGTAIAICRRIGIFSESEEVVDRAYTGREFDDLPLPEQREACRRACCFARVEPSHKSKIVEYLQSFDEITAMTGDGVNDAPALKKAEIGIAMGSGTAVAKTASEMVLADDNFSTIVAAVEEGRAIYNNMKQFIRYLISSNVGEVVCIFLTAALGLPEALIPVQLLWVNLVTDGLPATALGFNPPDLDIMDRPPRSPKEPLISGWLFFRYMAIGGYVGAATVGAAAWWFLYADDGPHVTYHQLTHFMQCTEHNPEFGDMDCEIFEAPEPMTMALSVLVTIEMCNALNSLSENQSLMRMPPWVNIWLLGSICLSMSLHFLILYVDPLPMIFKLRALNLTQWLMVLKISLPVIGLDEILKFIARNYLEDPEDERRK

For `C[C@]12CC[C@H](CC(=O)O)C[C@@H]1[C@@H](O)C[C@@H]1[C@@H]2CC[C@]2(C)C(=O)CC[C@@H]12` [Compound 8], the “skeletal SERCA1 activity in the absence of PLN” value (SERCA1) was “failed to affect”, the “SERCA1 KdCa after reconstitution with PLN1–32” value [1] was “dose-dependently reversed the PLN-induced shift in KdCa” and the “SERCA1 Vmax after reconstitution with PLN1–32” value [1] was “unchanged”. For the same molecule, the “SERCA2a Vmax increase” value (SERCA2a [2]; 300 nM) was “+17%”, the “SERCA2a Vmax increase” value (SERCA2a [2]; 500 nM) was “+28%” and the “SERCA2a KdCa” value (SERCA2a [3]; Cpd 100 nM) was 214 ± 17 nM. The “SERCA2a Vmax (µmol/min/mg)” value (SERCA2a [3]; Cpd 100 nM) was 0,344 ± 0,038 µmol/min/mg, the “SERCA2a KdCa” value (SERCA2a [3]; Cpd 300 nM) was 210 ± 13 nM and the “SERCA2a Vmax (µmol/min/mg)” value (SERCA2a [3]; Cpd 300 nM) was 0,366 ± 0,027 µmol/min/mg. The “SERCA2a KdCa” value (SERCA2a [3]; Cpd 500 nM) was 260 ± 35 nM, the “SERCA2a Vmax (µmol/min/mg)” value (SERCA2a [3]; Cpd 500 nM) was 0,313 ± 0,028 µmol/min/mg and the “SERCA2a KdCa” value (SERCA2a [3]; Cpd 1000 nM) was 273 ± 32 nM. The “SERCA2a Vmax (µmol/min/mg)” value (SERCA2a [3]; Cpd 1000 nM) was 0,320 ± 0,020 µmol/min/mg.
For `C[C@]12CC[C@H](CCCC(=O)O)C[C@@H]1[C@@H](O)C[C@@H]1[C@@H]2CC[C@]2(C)C(=O)CC[C@@H]12` [Compound 5], the “skeletal SERCA1 activity in the absence of PLN” value (SERCA1) was “failed to affect”, the “SERCA1 KdCa after reconstitution with PLN1–32” value [1] was “dose-dependently reversed the PLN-induced shift in KdCa” and the “SERCA1 Vmax after reconstitution with PLN1–32” value [1] was “unchanged”. For the same molecule, the “SERCA2a Vmax increase” value (SERCA2a [2]; 300 nM) was “+26%”, the “SERCA2a Vmax increase” value (SERCA2a [2]; 500 nM) was “+25%” and the “SERCA2a KdCa” value (SERCA2a [3]; Cpd 100 nM) was 221 ± 24 nM. The “SERCA2a Vmax (µmol/min/mg)” value (SERCA2a [3]; Cpd 100 nM) was 0,371 ± 0,021 µmol/min/mg, the “SERCA2a KdCa” value (SERCA2a [3]; Cpd 300 nM) was 221 ± 21 nM and the “SERCA2a Vmax (µmol/min/mg)” value (SERCA2a [3]; Cpd 300 nM) was 0,384 ± 0,023 µmol/min/mg. For the same molecule, the “SERCA2a KdCa” value (SERCA2a [3]; Cpd 500 nM) was 220 ± 24 nM, the “SERCA2a Vmax (µmol/min/mg)” value (SERCA2a [3]; Cpd 500 nM) was 0,374 ± 0,031 µmol/min/mg and the “SERCA2a KdCa” value (SERCA2a [3]; Cpd 1000 nM) was 219 ± 32 nM. The “SERCA2a Vmax (µmol/min/mg)” value (SERCA2a [3]; Cpd 1000 nM) was 0,377 ± 0,029 µmol/min/mg.
